This is an account of results in US8273754B2, “Substituted 1H-pyrazolo[3,4-D]pyrimidine-6-amine compounds” (ArQule, Inc., priority 2008, dated 2012).

In the assay the test system is cancer cells. As to the kind of experiment: MTS cell growth inhibition assay (72 hours). The assay is classed as cell-based. The essentials:
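Growth inhibition read as formazan absorbance at 492 nm after 4 h MTS/PMS, following 72 h compound exposure at 37 °C in 1% FBS DMEM (cells pre-seeded 18 h). IC50 = 50% absorbance reduction; inhibition graded in bands.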

Setting [1] is: Homo sapiens, DLD-1, 72 h, DLD-1 cells, read-out: DLD-1 MTS 72 hr at 10 μM.
[2] abbreviates: Homo sapiens, KATO III, 72 h, KATO III cells, read-out: KATO III MTS 72 hr at 10 μM.
Where [3] appears, read: Homo sapiens, MDA-MB-231, 72 h, MDA-MB-231 cells, read-out: MDA-MB-231 MTS 72 hr at 10 μM.
Setting [4] is: Homo sapiens, NCI-H1299, 72 h, NCI-H1299 cells, read-out: NCI-H1299 MTS 72 hr at 10 μM.
[5] abbreviates: PaCa-2, 72 h, PACA-2 cells, read-out: PACA-2 MTS 72 hr at 10 μM.

Read-outs that look alike come from different tables or passages of the source.

Take `Nc1nc(NC2Cc3ccccc3N(S(=O)(=O)c3cccc(Br)c3)C2)c2cn[nH]c2n1` (stereo not shown) [Compound 41, N4-(1-(3-bromophenylsulfonyl)-1,2,3,4-tetrahydroquinolin-3-yl)-1H-pyrazolo[3,4-d]pyrimidine-4,6-diamine]: the inhibition at 10 µM by setting is: under setting [1], less than 50%; under setting [2], more than 79%; under setting [3], less than 50%; under setting [4], less than 50%; under setting [5], less than 50%.

For the molecule `Nc1nc(NC2Cc3ccccc3N(Cc3ccc(-c4ccccn4)cc3)C2)c2cn[nH]c2n1` (stereo not shown) [Compound 143, N4-[1-(4-pyridin-2-ylbenzyl)-1,2,3,4-tetrahydroquinolin-3-yl]-1H-pyrazolo[3,4-d]pyrimidine-4,6-diamine], the inhibition at 10 µM was less than 50% under setting [1]; less than 50% under setting [2]; less than 50% under setting [3]; less than 50% under setting [4]; less than 50% under setting [5].

For `Cn1cnc(S(=O)(=O)N2CC(Nc3nc(N)nc4[nH]ncc34)Cc3ccccc32)c1` (stereo not shown) [Compound 38, N4-(1-(1-methyl-1H-imidazol-4-ylsulfonyl)-1,2,3,4-tetrahydroquinolin-3-yl)-1H-pyrazolo[3,4-d]pyrimidine-4,6-diamine], the inhibition at 10 µM reads like this: under setting [1], less than 50%; under setting [2], less than 50%; under setting [3], less than 50%; under setting [4], less than 50%; under setting [5], less than 50%.

Consider `Nc1nc(NC2Cc3ccccc3N(Cc3cccc(Oc4ccc(Cl)cc4)c3)C2)c2cn[nH]c2n1` (stereo not shown) [Compound 164, N4-{1-[3-(4-chlorophenoxy)benzyl]-1,2,3,4-tetrahydroquinolin-3-yl}-1H-pyrazolo[3,4-d]pyrimidine-4,6-diamine], for which the inhibition at 10 µM under setting [1] was in the range of 50 to 79%; the inhibition at 10 µM under setting [2] is 50 to 79%; the inhibition at 10 µM under setting [3] is less than 50%; the inhibition at 10 µM under setting [4] is less than 50%; the inhibition at 10 µM under setting [5] is less than 50%.

As for `Nc1nc(NC2Cc3ccccc3N(S(=O)(=O)c3cccc(OC(F)(F)F)c3)C2)c2cn[nH]c2n1` (stereo not shown) [Compound 70, N4-(1-(3-(trifluoromethoxy)phenylsulfonyl)-1,2,3,4-tetrahydroquinolin-3-yl)-1H-pyrazolo[3,4-d]pyrimidine-4,6-diamine], the inhibition at 10 µM was less than 50% under setting [1]; 50 to 79% under setting [2]; less than 50% under setting [3]; less than 50% under setting [4]; less than 50% under setting [5].

For the molecule `COC(=O)CCc1ccc(S(=O)(=O)N2CC(Nc3nc(N)nc4[nH]ncc34)Cc3ccccc32)cc1` (stereo not shown) [Compound 73, methyl 3-(4-(3-(6-amino-1H-pyrazolo[3,4-d]pyrimidin-4-ylamino)-3,4-dihydroquinolin-1(2H)-ylsulfonyl)phenyl)propanoate], the inhibition at 10 µM runs as follows: under setting [1], less than 50%; under setting [2], less than 50%; under setting [3], less than 50%; under setting [4], less than 50%; under setting [5], less than 50%.

Take `Nc1nc(NC2Cc3ccccc3N(S(=O)(=O)c3cccc(NC(=O)Nc4cccc(Cl)c4)c3)C2)c2cn[nH]c2n1` (stereo not shown) [Compound 201, 1-[3-({3-[(6-amino-1H-pyrazolo[3,4-d]pyrimidin-4-yl)amino]-3,4-dihydroquinolin-1(2H)-yl}sulfonyl)phenyl]-3-(3-chlorophenyl)urea]: the inhibition at 10 µM reads like this: under setting [1], more than 79%; under setting [2], more than 79%; under setting [3], more than 79%; under setting [4], more than 79%; under setting [5], more than 79%.

As for `Nc1nc(NC2CCN(S(=O)(=O)c3ccc(OC(F)(F)F)cc3)c3ccccc3C2)c2cn[nH]c2n1` (stereo not shown) [Compound 185, N4-(1-{[4-(trifluoromethoxy)phenyl]sulfonyl}-2,3,4,5-tetrahydro-1H-1-benzazepin-4-yl)-1H-pyrazolo[3,4-d]pyrimidine-4,6-diamine], the inhibition at 10 µM reads like this: under setting [1], less than 50%; under setting [2], less than 50%; under setting [3], less than 50%; under setting [4], less than 50%; under setting [5], less than 50%.

On to `CCc1ccc(S(=O)(=O)N2CC(Nc3nc(N)nc4[nH]ncc34)Cc3ccccc32)cc1` (stereo not shown) [Compound 59, N4-(1-(4-ethylphenylsulfonyl)-1,2,3,4-tetrahydroquinolin-3-yl)-1H-pyrazolo[3,4-d]pyrimidine-4,6-diamine], for which the inhibition at 10 µM under setting [1] was less than 50%; the inhibition at 10 µM under setting [2] is less than 50%; the inhibition at 10 µM under setting [3] was less than 50%; the inhibition at 10 µM under setting [4] was less than 50%; the inhibition at 10 µM under setting [5] is less than 50%.

`Nc1nc(NC2Cc3ccccc3N(Cc3cc(Cl)ccc3C(F)(F)F)C2)c2cn[nH]c2n1` (stereo not shown) [Compound 163, N4-{1-[5-chloro-2-(trifluoromethyl)benzyl]-1,2,3,4-tetrahydroquinolin-3-yl}-1H-pyrazolo[3,4-d]pyrimidine-4,6-diamine]: the inhibition at 10 µM is, setting by setting: under setting [1], more than 79%; under setting [2], more than 79%; under setting [3], more than 79%; under setting [4], more than 79%; under setting [5], more than 79%.

Take `Cc1cc([N+](=O)[O-])ccc1NC(=O)N1CC(Nc2nc(N)nc3[nH]ncc23)Cc2ccccc21` (stereo not shown) [Compound 113, 3-(6-amino-1H-pyrazolo[3,4-d]pyrimidin-4-ylamino)-N-(2-methyl-4-nitrophenyl)-3,4-dihydroquinoline-1(2H)-carboxamide]: the inhibition at 10 µM under setting [1] was more than 79%; the inhibition at 10 µM under setting [2] was more than 79%; the inhibition at 10 µM under setting [3] is more than 79%; the inhibition at 10 µM under setting [4] was more than 79%; the inhibition at 10 µM under setting [5] was more than 79%.

Regarding `CS(=O)(=O)c1ccc(CN2CC(Nc3nc(N)nc4[nH]ncc34)Cc3ccccc32)cc1` (stereo not shown) [Compound 139, N4-{1-[4-(methylsulfonyl)benzyl]-1,2,3,4-tetrahydroquinolin-3-yl}-1H-pyrazolo[3,4-d]pyrimidine-4,6-diamine], the inhibition at 10 µM runs as follows: under setting [1], more than 79%; under setting [2], more than 79%; under setting [3], less than 50%; under setting [4], less than 50%; under setting [5], 50 to 79%.

Consider `Nc1nc(NC2Cc3ccccc3N(S(=O)(=O)c3ccc(NC(=O)Nc4ccc5ccccc5c4)cc3)C2)c2cn[nH]c2n1` (stereo not shown) [Compound 189, 1-[4-({3-[(6-amino-1H-pyrazolo[3,4-d]pyrimidin-4-yl)amino]-3,4-dihydroquinolin-1(2H)-yl}sulfonyl)phenyl]-3-(2-naphthyl)urea], for which the inhibition at 10 µM was more than 79% under setting [1]; more than 79% under setting [2]; more than 79% under setting [3]; more than 79% under setting [4]; more than 79% under setting [5].

Turning to `Cc1ccccc1CNC(=O)N1CC(Nc2nc(N)nc3[nH]ncc23)Cc2ccccc21` (stereo not shown) [Compound 111, 3-(6-amino-1H-pyrazolo[3,4-d]pyrimidin-4-ylamino)-N-(2-methylbenzyl)-3,4-dihydroquinoline-1(2H)-carboxamide], the inhibition at 10 µM under setting [1] was less than 50%; the inhibition at 10 µM under setting [2] is less than 50%; the inhibition at 10 µM under setting [3] is less than 50%; the inhibition at 10 µM under setting [4] was less than 50%; the inhibition at 10 µM under setting [5] was less than 50%.
